Data as given in publication PMC6270778, “Novel Cinnamic Acid Derivatives as Antioxidant and Anticancer Agents: Design, Synthesis and Modeling Studies” (Molecules, 2014).
Where “and” joins values, the source holds several entries; their conditions need not be identical. Equal entries are not always repeated.

Columns and labels:
[1] = Inhibition of linoleic acid peroxidation (AAPH); settings: 0.1 mM
Source text: For the in vitro study of the free radical production, azo compounds generating free radicals through spontaneous thermal decomposition are used. The water soluble 2,2'-azobis(2-amidinopropane) hydrochloride (AAPH) is recommended as appropriate for measuring radical-scavenging activity in vitro. The activity of the peroxyl radicals produced by the action of AAPH greatly resembles to cellular activities such as lipid peroxidation. The phenyl substituted acids presented remarkable activity at 0.1 mM concentration (84%–92%) compared to the non-substituted derivatives (20%–63%).
For initiating the free radical, 2,2'-azobis(2-amidinopropane) dihydrochloride (AAPH) is used. The final solution in the UV cuvette consisted of ten microliters of the 16 mM linoleate sodium dispersion 0.93 mL of 0.05 M phosphate buffer, pH 7.4, thermostatted at 37 °C. 50 μL of 40 mM AAPH solution was added as a free radical initiator at 37 °C under air and 10 μL of the tested compounds. The oxidation of linoleic acid sodium salt results a conjugated diene hydroperoxide. The reaction is monitored at 234 nm (Table 3).

[2] = ABTS+ decolorization assay; settings: 0.1 mM
Experimental: The ABTS^•+ is derived from the oxidation of ABTS by potassium persulfate. It is a decolorization assay. The addition of electron-donating antioxidants leads to ABTS^•+ reduction. The chemistry taking place involves the direct generation of the ABTS^•+ with no involvement of an intermediary radical.
In this assay, ethanol is used for the dilution of the ABTS^+• solution. ABTS is dissolved in water to a 7 mM and reacts with 2.45 mM […] to produce the ABTS radical cation (ABTS^+•) by allowing the mixture to stand in the dark at room temperature for 12–16 h before use. Ten μL of diluted ABTS^+• solution (734 nm) is added to 10 μL of antioxidant compounds or Trolox standards (final concentration 0–0.1 mM) in ethanol and the absorbance is measured at 30 °C exactly 1 min after the initial mixing (Table 3).

OAW-42 (ovarian) = assay: SRB cytotoxicity assay, OAW-42; assay type: cell-based; settings: Homo sapiens, 50% growth inhibition, 48 h exposure
Experimental: (§1) Human cancer cell lines used as targets were HT-29 (colon), A-549 (lung), OAW-42 (ovarian), MDA-MB-231 (breast), HeLa (immortal cells from cervical cancer). All cells were obtained from the American Type Culture Collection (ATCC). Cells were routinely grown as monolayer cell cultures in T-75 flasks (Costar) in an atmosphere containing 5% CO2 in air and 100% relative humidity at 37 °C and subcultured twice a week, restricting the total number of cell passages below 20. The culture medium used was Dulbecco’s modified Eagle’s medium (DMEM, Gibco, Grand Island, NY, USA) supplemented with 10% fetal bovine serum (Gibco), 2 mM glutamine (Sigma), 100 μg/mL streptomycin and 100 IU/mL penicillin.
(§2) Cell passages were carried out by detaching adherent, logarithmically growing cells after addition of 2–3 mL of a mixture of 0.05% solution of trypsin (Gibco, 1:250) in phosphate-buffered saline (PBS) with 0.02% EDTA and incubation for 3–5 min at 37 °C. For the experiments, cells were plated (100 μL containing 10,000 cells/well) in 96-well flat-bottom microplates microplates (Costar-Corning, Acton, MA 01720, USA) so that untreated cells were in exponential growth phase at the time of cytotoxicity evaluation. Cells were left for 24 h at 37 °C to resume exponential growth and stabilization and afterwards exposed to tested agents for 48 h by the addition of an equal volume (100 μL) of either complete culture medium (control wells), or twice the final drug concentrations diluted in complete culture medium (test wells). Drug cytotoxicity was measured by means of the SRB colorimetric assay estimating the survival fractions (SF) as the percent of control (untreated cells) absorbance. The SRB assay was carried out as previously described and modified by our group. In brief, culture medium was aspirated prior to fixation using a microplate-multiwash device (Tri-Continent Scientific, Inc., Grass Valley, CA, USA) and 50 μL of 10% cold (4 °C) trichloroacetic acid (TCA) were gently added to the wells. Microplates were left for 30 min at 4 °C, washed five times with deionized water and left to dry at room temperature for at least 24 h. Subsequently, 70 μL of 0.4% (w/v) sulforhodamine B (Sigma) in 1% acetic acid solution were added to each well and left at room temperature for 20 min. SRB was removed and the plates were washed five times with 1% acetic acid before air drying. Bound SRB was solubilized with 200 μL of 10 mM unbuffered Tris-base solution and plates were left on a plate shaker for at least 10 min. Absorbance was read in a 96-well plate reader at 492 nm subtracting the background measurement at 620 nm. The test optical density (OD) value was defined as the absorbance of each individual well, minus the blank value (“blank” is the mean optical density of the background control wells, n = 8). Mean values and the coefficient of variation (CV) from six replicate wells were calculated automatically. Results were expressed as the “survival fraction” (SF), as shown below.
(§3) For each tested compound a dose-effect curve was produced. Sextuplicate determinations gave a CV (Standard Deviation/mean %) of much less than 10%, resulting in standard error (SE) which was very low in all cases. The data showing inhibition of cellular growth are expressed as the fraction of cells that remains unaffected (fu) (survival fraction, SF), which is derived from the following equation: fu = ODx/ODc where ODx and ODc represent the test and the control optical density, respectively.

[3] = tested on: HeLa (immortal cells from cervical cancer); assay: SRB cytotoxicity assay, HeLa; assay type: cell-based; settings: Homo sapiens, 50% growth inhibition, 48 h exposure
Experimental: as §1, §2, §3

MRC-5 normal cells = assay: SRB cytotoxicity assay, MRC-5 normal cells; assay type: cell-based; settings: Homo sapiens, MRC5, 50% growth inhibition, 48 h exposure
Experimental: Thus, we conducted in vitro studies in two colon cancer cell lines (HT-29 and HCT-15) reported time and dose-dependent stimulation of cell proliferation by LTB4 and 12-HETE [46]. The synthesized acids have been tested in five different human tumour cell lines: HT-29 (colon), A-549 (lung), OAW-42 (ovarian), MDA-MB-231 (breast), HeLa (immortal cells from cervical cancer) and MRC-5 normal cells.
as §2, §3

[4] = Interaction with the stable radical DPPH
Experimental: The novel acids were studied for the antioxidant activity by the use of the sTable 2,2-diphenyl-1-picrylhydrazyl radical (DPPH) at concentrations 0.05 and 0.1 mM after 20 and 60 min (Table 2). In the DPPH assay, the dominant chemical reaction involved is the reduction of the DPPH radical by single electron transfer SET from the antioxidant. Phenolic compounds eg. […] The compounds presented reducing abilities which ranged nearly 29% (4ii), small differences were found among the compounds with time and concentration. […] Due to steric reasons the interaction of DPPH with the tested compounds is low.
To a solution of DPPH in absolute ethanol the appropriate volume of the compounds (0.05 and 0.1 mM final concentrations) dissolved in DMSO was added. The absorbance was recorded at 517 nm after 20 and 60 min at room temperature (Table 3).

Compound	AAPH (%) (±SD), inhibition of linoleic acid peroxidation [1]	ABTS+· (%) (±SD) [2]	IC50 (OAW-42 (ovarian)) [µM]	IC50 [3] [µM]	IC50 (MRC-5 normal cells) [µM]	RA % (±SD), DPPH ([4]; 0.05 mM, 20 min) [%]	RA % (±SD), DPPH ([4]; 0.05 mM, 60 min) [%]	RA % (±SD), DPPH ([4]; 0.1 mM, 20 min) [%]	RA % (±SD), DPPH ([4]; 0.1 mM, 60 min) [%]
O=C(O)C=CC=Cc1ccccc1 [Compound 3ii, 5-Phenylpenta-2,4-dienoic acid]	30 ± 1.0	31 ± 1.1%	> 240	> 240	240 ± 1.8	11 ± 0.06	7 ± 0.0	20 ± 0.2	16 ± 0.05
N#Cc1ccc(C=C(C(=O)O)c2ccccc2)cc1 [Compound 1i, 3-(4-Cyanophenyl)-2-phenylacrylic acid]	92 ± 1.2	26 ± 0.4%	> 240	> 240	222 ± 1.3	12 ± 0.3	14 ± 0.1	28 ± 0.6	20 ± 0.8
O=C(O)C=CC=Cc1ccc([N+](=O)[O-])cc1 [Compound 2ii, 5-(4-Nitrophenyl)penta-2,4-dienoic acid]	29 ± 0.7	35 ± 0.9%	> 240	240 ± 1.6	240 ± 1		13 ± 0.04	29 ± 1.0	24 ± 0.6
O=C(O)C(=CC=Cc1ccc([N+](=O)[O-])cc1)c1ccccc1 [Compound 2i, 5-(4-Nitrophenyl)-2-phenylpenta-2,4-dienoic acid]	89 ± 0.9	26 ± 0.5%	160 ± 1.1	118 ± 1.4	96.3 ± 1.1	10 ± 0.04	11 ± 0.02	23 ± 0.7	23 ± 0.9
N#Cc1ccc(C=CC(=O)O)cc1 [Compound 1ii, 3-(4-Cyanophenyl)acrylic acid]	20 ± 0.1	47.4% and 47 ± 0.8%	> 240	> 240	> 240	13 ± 0.3	9 ± 0.03	23 ± 0.5	21 ± 1.0
O=C(O)C(=CC(Br)=Cc1ccccc1)c1ccccc1 [Compound 4i, 4-Bromo-2,5-diphenylpenta-2,4-dienoic acid]	88 ± 1.8	24 ± 0.5%	174 ± 1.8	80 ± 0.9	92 ± 1.3	7 ± 0.03	4 ± 0.01	8 ± 0.03	5 ± 0.0
O=C(O)C=CC(Br)=Cc1ccccc1 [Compound 4ii, 4-Bromo-5-phenylpenta-2,4-dienoic acid]	63 ± 1.1	26 ± 0.4%	63.5 ± 0.8	30 ± 0.4	24 ± 0.6	17 ± 0.02	13 ± 0.05	30 ± 0.9	29 ± 0.6
O=C(O)C(=CC=Cc1ccccc1)c1ccccc1 [Compound 3i, 2,5-Diphenylpenta-2,4-dienoic acid]	84 ± 1.4	26 ± 0.8%	> 240	> 240	> 240	4 ± 0.02	3 ± 0.0	5 ± 0.0	6 ± 0.04
